Patent US5668152A, “Protein kinase C inhibitors” (priority 1995, dated 1997)
Where two headings read alike, the source gives them in different places.

Key:
[1] = target: protein kinase C beta-2 (Homo sapiens, UniProt P05771); experiment: PKC Enzyme assay, beta II isozyme; format: biochemical
Description: (§1) PKC enzymes=alpha, beta I, beta II, gamma, delta, epsilon, eta and zeta.
(§2) Assay components in a total volume of 250 μL are the following:
(§3) Vesicles consisting of 120 μg/mL phosphatidylserine (Avanti Polar Lipids) and sufficient diacylglycerol (Avanti Polar Lipids) to activate the enzyme to maximum activity in 20 mM HEPES buffer (Sigma, St. Louis, Mo.), pH 7.5, 940 μM calcium chloride (Sigma, St. Louis, Mo.) for assaying the alpha, beta I, beta II and gamma enzyme only, 1 mM EGTA for all the enzymes, 10 mM magnesium chloride (Sigma, St. Louis, Mo.) and 30 μM (gamma-32P) ATP (DuPont). For all the enzymes either histone type HL (Worthington) or myelin basic protein is used as substrate. The assay is started by addition of protein kinase C enzyme incubated at 30° C. for 10 minutes and stopped by adding 0.5 mL of cold trichloroacetic acid (Amresco) followed by 100 μL of 1 mg/mL bovine serum albumin (Sigma, St. Louis, Mo.). The precipitate is collected by vacuum filtration on glass fiber filters employing a TOMTEC™ filtration system and quantified by counting in a beta scintillation counter.

[2] = target: protein kinase C delta (Homo sapiens, UniProt Q05655); experiment: biochemical
Description: as §1, §2, §3

[3] = target: protein kinase C alpha (Homo sapiens, UniProt P17252); experiment: PKC Enzyme assay, alpha isozyme; format: biochemical
Description: as §1, §2, §3

[4] = target: T1, protein kinase C epsilon (Homo sapiens, UniProt Q02156); experiment: PKC Enzyme assay, epsilon isozyme; format: biochemical
T1 sequence (Q02156 1-737): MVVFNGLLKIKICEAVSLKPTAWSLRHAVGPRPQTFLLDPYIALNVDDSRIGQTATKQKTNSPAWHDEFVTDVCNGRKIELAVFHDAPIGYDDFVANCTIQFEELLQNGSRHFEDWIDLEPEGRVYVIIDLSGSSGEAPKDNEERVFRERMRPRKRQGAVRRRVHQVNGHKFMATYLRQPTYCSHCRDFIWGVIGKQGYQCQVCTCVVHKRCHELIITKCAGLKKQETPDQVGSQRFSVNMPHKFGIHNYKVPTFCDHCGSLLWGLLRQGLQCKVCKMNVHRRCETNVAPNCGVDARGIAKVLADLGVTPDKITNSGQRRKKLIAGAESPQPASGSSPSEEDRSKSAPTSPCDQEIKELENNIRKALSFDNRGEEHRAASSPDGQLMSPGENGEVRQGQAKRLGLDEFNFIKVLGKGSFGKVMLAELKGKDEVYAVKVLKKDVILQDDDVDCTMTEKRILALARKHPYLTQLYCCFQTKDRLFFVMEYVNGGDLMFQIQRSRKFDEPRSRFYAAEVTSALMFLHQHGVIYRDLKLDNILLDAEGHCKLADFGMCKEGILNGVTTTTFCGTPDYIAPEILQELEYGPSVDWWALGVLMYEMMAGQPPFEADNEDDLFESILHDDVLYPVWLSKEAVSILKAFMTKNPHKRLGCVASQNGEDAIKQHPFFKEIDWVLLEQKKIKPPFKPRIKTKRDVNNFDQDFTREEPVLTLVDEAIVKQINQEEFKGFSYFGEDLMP
Description: as §1, §2, §3

[5] = target: protein kinase C beta-1 (Homo sapiens, UniProt P05771); experiment: PKC Enzyme assay, beta I isozyme; format: biochemical
Description: as §1, §2, §3

[6] = target: protein kinase C eta (Homo sapiens, UniProt P24723); experiment: PKC Enzyme assay, eta isozyme; format: biochemical
Description: as §1, §2, §3

[7] = target: T2, protein kinase C zeta (Homo sapiens, UniProt Q05513); experiment: PKC Enzyme assay, zeta isozyme; format: biochemical
T2 sequence (Q05513 1-592): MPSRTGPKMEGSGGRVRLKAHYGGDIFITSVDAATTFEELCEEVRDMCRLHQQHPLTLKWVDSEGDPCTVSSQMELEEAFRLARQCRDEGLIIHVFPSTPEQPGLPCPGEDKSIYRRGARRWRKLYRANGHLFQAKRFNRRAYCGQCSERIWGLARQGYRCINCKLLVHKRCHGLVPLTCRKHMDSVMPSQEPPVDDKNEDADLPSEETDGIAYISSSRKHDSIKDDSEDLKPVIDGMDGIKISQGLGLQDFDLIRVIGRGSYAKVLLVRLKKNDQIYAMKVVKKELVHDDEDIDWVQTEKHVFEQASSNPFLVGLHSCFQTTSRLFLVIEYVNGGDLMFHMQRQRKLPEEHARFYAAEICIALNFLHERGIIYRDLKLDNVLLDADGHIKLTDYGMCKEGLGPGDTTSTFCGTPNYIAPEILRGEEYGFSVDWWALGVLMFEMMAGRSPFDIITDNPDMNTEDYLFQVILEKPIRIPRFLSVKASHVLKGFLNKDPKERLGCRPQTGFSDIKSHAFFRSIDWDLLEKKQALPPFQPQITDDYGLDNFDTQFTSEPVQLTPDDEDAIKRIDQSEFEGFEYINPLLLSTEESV
Description: as §1, §2, §3

[8] = target: protein kinase C gamma (Homo sapiens, UniProt P05129); experiment: PKC Enzyme assay, gamma isozyme; format: biochemical
Description: as §1, §2, §3

[9] = PKC beta-2, 30 μM ATP, 30° C., 10 minutes, read-out: IC50 β2
[10] = PKC delta, 30 μM ATP, 30° C., 10 minutes, read-out: IC50 δ
[11] = PKC alpha, 30 μM ATP, 30° C., 10 minutes, read-out: IC50 α
[12] = PKC epsilon, 30 μM ATP, 30° C., 10 minutes, read-out: IC50 ε
[13] = PKC beta-1, 30 μM ATP, 30° C., 10 minutes, read-out: IC50 β1
[14] = PKC eta, 30 μM ATP, 30° C., 10 minutes, read-out: IC50 η
[15] = PKC zeta, 30 μM ATP, 30° C., 10 minutes, read-out: IC50 ζ
[16] = PKC gamma, 30 μM ATP, 30° C., 10 minutes, read-out: IC50 γ

Sequence of protein kinase C eta (P24723 whole entry): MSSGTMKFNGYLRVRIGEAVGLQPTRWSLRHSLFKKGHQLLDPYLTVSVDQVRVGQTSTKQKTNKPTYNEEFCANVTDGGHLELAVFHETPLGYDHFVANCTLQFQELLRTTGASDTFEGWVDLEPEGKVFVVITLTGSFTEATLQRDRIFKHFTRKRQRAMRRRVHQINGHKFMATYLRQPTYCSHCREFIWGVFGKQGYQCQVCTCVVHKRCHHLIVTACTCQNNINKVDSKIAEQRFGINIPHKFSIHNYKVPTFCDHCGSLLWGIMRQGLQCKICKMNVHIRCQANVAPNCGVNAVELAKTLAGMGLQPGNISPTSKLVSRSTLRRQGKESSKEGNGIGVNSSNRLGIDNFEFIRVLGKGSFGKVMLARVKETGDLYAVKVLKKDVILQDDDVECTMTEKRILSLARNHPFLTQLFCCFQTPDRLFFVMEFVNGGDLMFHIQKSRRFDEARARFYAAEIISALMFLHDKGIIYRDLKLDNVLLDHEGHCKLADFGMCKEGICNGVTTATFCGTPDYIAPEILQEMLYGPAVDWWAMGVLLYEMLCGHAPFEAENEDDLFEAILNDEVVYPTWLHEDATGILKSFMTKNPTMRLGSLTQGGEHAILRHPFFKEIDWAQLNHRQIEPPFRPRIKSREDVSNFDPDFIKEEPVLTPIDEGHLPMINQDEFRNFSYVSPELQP
Sequence of protein kinase C beta-1 (P05771 whole entry): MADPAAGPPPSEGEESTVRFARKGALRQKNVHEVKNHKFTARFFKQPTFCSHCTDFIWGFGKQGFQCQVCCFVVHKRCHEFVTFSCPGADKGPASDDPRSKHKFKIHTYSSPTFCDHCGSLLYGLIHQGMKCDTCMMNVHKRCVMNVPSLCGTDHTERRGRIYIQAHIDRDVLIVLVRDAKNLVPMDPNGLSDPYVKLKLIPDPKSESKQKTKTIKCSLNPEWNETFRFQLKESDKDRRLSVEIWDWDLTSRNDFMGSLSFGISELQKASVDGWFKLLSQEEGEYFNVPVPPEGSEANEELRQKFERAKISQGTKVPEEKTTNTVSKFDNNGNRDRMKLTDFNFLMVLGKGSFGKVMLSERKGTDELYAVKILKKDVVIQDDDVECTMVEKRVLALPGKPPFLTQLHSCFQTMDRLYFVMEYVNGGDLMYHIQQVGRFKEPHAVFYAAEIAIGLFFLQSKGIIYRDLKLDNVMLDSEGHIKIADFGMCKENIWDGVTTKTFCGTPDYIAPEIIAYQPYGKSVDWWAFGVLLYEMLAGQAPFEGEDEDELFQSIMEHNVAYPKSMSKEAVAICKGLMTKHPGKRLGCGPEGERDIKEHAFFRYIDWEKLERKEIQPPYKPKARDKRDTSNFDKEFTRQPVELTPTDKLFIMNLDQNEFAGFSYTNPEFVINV
Sequence of protein kinase C beta-2 (P05771 1-673 isoform P05771-2): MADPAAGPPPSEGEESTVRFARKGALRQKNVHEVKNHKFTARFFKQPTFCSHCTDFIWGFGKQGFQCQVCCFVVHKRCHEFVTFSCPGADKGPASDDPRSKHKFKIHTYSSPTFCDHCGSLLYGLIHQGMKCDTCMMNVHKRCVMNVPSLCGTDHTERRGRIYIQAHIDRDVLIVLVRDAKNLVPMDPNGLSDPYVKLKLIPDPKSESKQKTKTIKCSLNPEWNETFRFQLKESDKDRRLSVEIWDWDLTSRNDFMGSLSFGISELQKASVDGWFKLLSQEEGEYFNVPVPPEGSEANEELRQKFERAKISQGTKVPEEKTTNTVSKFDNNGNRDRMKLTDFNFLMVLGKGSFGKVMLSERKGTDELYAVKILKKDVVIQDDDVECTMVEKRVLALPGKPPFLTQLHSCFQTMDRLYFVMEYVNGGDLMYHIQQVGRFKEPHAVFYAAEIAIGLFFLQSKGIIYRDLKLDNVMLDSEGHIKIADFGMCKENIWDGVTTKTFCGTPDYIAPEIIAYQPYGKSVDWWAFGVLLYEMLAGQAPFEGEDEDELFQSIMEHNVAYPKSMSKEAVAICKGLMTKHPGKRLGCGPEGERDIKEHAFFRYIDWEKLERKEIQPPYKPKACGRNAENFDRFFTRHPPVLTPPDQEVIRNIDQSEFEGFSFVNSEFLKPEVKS
Sequence of protein kinase C delta (Q05655 whole entry): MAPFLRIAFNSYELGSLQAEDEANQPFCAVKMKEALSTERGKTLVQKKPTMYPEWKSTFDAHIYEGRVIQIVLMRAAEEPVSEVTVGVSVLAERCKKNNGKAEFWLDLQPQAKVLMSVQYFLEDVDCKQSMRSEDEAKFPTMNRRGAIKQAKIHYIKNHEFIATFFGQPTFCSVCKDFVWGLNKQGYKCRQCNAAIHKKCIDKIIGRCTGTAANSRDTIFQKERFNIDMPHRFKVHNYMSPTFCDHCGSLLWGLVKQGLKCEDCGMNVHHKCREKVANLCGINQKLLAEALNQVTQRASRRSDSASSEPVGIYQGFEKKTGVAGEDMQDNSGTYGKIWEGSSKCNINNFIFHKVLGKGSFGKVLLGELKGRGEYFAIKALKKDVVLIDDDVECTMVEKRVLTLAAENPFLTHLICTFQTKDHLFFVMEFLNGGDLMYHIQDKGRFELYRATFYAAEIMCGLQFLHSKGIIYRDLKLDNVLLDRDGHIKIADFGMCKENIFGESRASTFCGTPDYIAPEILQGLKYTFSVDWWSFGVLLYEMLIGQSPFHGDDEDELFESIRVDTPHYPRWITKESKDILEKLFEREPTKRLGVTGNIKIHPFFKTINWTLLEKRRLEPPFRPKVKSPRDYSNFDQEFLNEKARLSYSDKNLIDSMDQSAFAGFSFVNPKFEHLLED

SMILES | IC50 [1, 9] [nM] | IC50 [2, 10] [nM] | IC50 [3, 11] [nM] | IC50 [4, 12] [nM] | IC50 [5, 13] [nM] | IC50 [6, 14] [nM] | IC50 [7, 15] [nM] | IC50 [8, 16] [nM] | IC50 [1] [nM] | IC50 [2] [nM] | IC50 [3] [nM] | IC50 [4] [nM] | IC50 [5] [nM] | IC50 [6] [nM] | IC50 [7] [nM] | IC50 [8] [nM]
O=C1NC(=O)C(c2cn(CCCO)c3ccccc23)=C1c1c[nH]c2ccccc12 [Example 11] | 46 | 410 | 450 | 680 | 39 | 100 | 16000 | 1100 | – | – | – | – | – | – | – | –
Cn1cc(C2=C(c3c[nH]c4ccccc34)C(=O)NC2=O)c2ccccc21 [Example 12] | 86 | 1000 | 1210 | 900 | 81 | 520 | 8000 | 1250 | – | – | – | – | – | – | – | –
O=C1NC(=O)C(c2cn(Cc3ccccc3)c3ccccc23)=C1c1c[nH]c2ccccc12 [Example 14] | 1140 | 8800 | 13500 | 30000 | 1150 | 4500 | 34000 | 25000 | – | – | – | – | – | – | – | –
Cc1c(C2=C(c3cn(CN(C)C)c4ccccc34)C(=O)NC2=O)c2ccccc2n1CCCN(C)C [Example 15] | 100 | 3400 | 4900 | 5500 | 140 | 1300 | 37000 | 4000 | – | – | – | – | – | – | – | –
Cc1c(C2=C(c3c(C)n(CN(C)C)c4ccccc34)C(=O)NC2=O)c2ccccc2n1CCCN(C)C [Example 16] | 600 | 8000 | 39000 | 10000 | 700 | 5600 | 40000 | 9200 | – | – | – | – | – | – | – | –
CC(=O)N1CCC(n2cc(C3=C(c4cn(C)c5ccccc45)C(=O)NC3=O)c3ccccc32)CC1 [Example 37, 3-(1-(1-Acetyl-piperidin-4-yl]-indol-3-yl)-4-(1-methyl-indol-3-yl)-pyrrole-2,5-dione] | 20 | 400 | 300 | 400 | 9 | 100 | 20000 | 1000 | – | – | – | – | – | – | – | –
CCOC(=O)CN1CCC(n2cc(C3=C(c4cn(C)c5ccccc45)C(=O)NC3=O)c3ccccc32)CC1 [Example 38] | 50 | 3000 | 1000 | 400 | 50 | 2000 | > 100000 | 5000 | – | – | – | – | – | – | – | –
Cn1cc(C2=C(c3cn(C4CCN(CC5CC5)CC4)c4ccccc34)C(=O)NC2=O)c2ccccc21 [Example 39, 3-[1-N-(1-N-(Cyclopropylmethylene)-piperidin-4-yl)-indol-3-yl]-4-(1-N-(methyl)-indol-3-yl)-1H-pyrrole-2,5-dione] | 10 | 400 | 300 | 900 | 30 | 50 | 9000 | 400 | – | – | – | – | – | – | – | –
CN(C)CCCN1CCC(n2cc(C3=C(c4cn(C)c5ccccc45)C(=O)NC3=O)c3ccccc32)CC1 [Example 41, 3-{1-[1-N-(3-N,N-(Dimethylamino)propyl)-piperidin-4-yl]-indol-3-yl}-4-(1-methyl-indol-3-yl)-1H-pyrrole-2,5-dione] | 100 | 4000 | 3000 | 1000 | 200 | 2000 | 15000 | 4000 | – | – | – | – | – | – | – | –
CN1CCC(n2cc(C3=C(c4cn(C)c5ccccc45)C(=O)NC3=O)c3ccccc32)CC1 [Example 42, 3-[1-(1-Methyl-piperidin-4-yl)-indol-3-yl]-4-(1-methyl-indol-3-yl)-1H-pyrrole-2,5-dione] | 10 | 400 | 400 | 400 | 20 | 50 | 4000 | 500 | – | – | – | – | – | – | – | –
Cn1cc(C2=C(c3cn(C4CCN(C(=N)N)CC4)c4ccccc34)C(=O)NC2=O)c2ccccc21 [Example 44, 3-[1-(1-carboxamidine-piperidin-4-yl)-indol-3-yl)-4-(1-methyl-indol-3-yl)-1-pyrrole-2,5-dione] | 5 | 100 | 42 | 360 | 5 | 5 | 4800 | 82 | – | – | – | – | – | – | – | –
Cn1cc(C2=C(c3cn(C4CCN(CC(F)(F)C(F)(F)C(F)(F)F)CC4)c4ccccc34)C(=O)NC2=O)c2ccccc21 [Example 46, 3-{1-[1-(2,2,3,3,4,4,4-Heptafluoro-butyl)-piperidin-4-yl]-indol-3-yl}-4-(1-methyl-indol-3-yl)-1H-pyrrole-2,5-dione] | – | – | – | – | – | – | – | – | 460 | > 100000 | > 100000 | > 100000 | 3000 | > 100000 | > 100000 | > 100000
Cn1cc(C2=C(c3cn(C4CCN(Cc5ccccc5)CC4)c4ccccc34)C(=O)NC2=O)c2ccccc21 [Example 47] | 50 | – | – | – | – | 500 | – | – | – | 2000 | 1000 | 3000 | 100 | – | 52000 | 4000
Cn1cc(C2=C(c3cn(C4CCN(c5ccccn5)CC4)c4ccccc34)C(=O)NC2=O)c2ccccc21 [Example 48] | 40 | 2000 | 2000 | 2000 | 50 | 2000 | > 100000 | 5000 | – | – | – | – | – | – | – | –
O=C1NC(=O)C(c2cn(C3CCNCC3)c3ccccc23)=C1c1c[nH]c2ccccc12 [Example 50] | 20 | 500 | 300 | 500 | 30 | 100 | 3000 | 600 | – | – | – | – | – | – | – | –
CN1CCC(n2cc(C3=C(c4c[nH]c5ccccc45)C(=O)NC3=O)c3ccccc32)CC1 [Example 51] | 10 | 400 | 200 | 50 | 20 | 40 | 5000 | 500 | – | – | – | – | – | – | – | –
Cn1cc(C2=C(c3cn(CCCCOC4CC(O)C(CN)O4)c4ccccc34)C(=O)NC2=O)c2ccccc21 (stereo not shown) [Example 53] | 230 | 3500 | 3200 | 6600 | 410 | 1700 | 51000 | 4300 | – | – | – | – | – | – | – | –
